In patent US11850246B2, “Method for treatment of cytokine release syndrome” (NOVMETAPHARMA CO., LTD., priority 2020, dated 2023):

What was measured:
[1] = system: macrophage; assay: Anti-inflammatory effect on LPS-activated macrophage: activation surface markers by flow cytometry; type: cell-based; details: 5 μM compound; macrophage activated with 100 ng/mL LPS; 24 hours after LPS treatment; flow cytometry (FIG. 1A-1C)
Protocol: Dysregulation of immune activation in innate immune cell is the main factor initiating cytokine release syndrome. Immune regulatory effects of the compound of Chemical Formula 1 on macrophage were assessed employing compound 18a (DMRC200434). 5 μM DMRC200434 was treated on activated macrophage with 100 ng/mL lipopolysaccharide (LPS) (Sigma-Aldrich). 24 hours after LPS treatment, activation markers (CD40, CD80, CD86) were measured by flow cytometry.

[2] = system: LPS induced endotoxemia model; assay: LPS induced endotoxemia model, survival; type: in vivo, C57BL/6 mice; details: 30 mg/kg injected 24 hours prior to and at start of LPS (50 mg/kg) injection; survival observed for 50 hours (FIG. 2)
Protocol: 6 to 8-week female C57BL/6 mice (Jackson Lab) were used according to an animal protocol approved by the Institutional Animal Care and Use Committee of Kyungpook National University.
Compound of Chemical Formula 1 (DMRC200434, 30 mg/kg) was dissolved in a solution of 5%—DMSO: 95%—20% PEG400(Saline) and was injected at two points—at 24 hours prior to, and at the start of LPS (50 mg/kg) injection.
The inventors analyzed the efficacy of a compound of Chemical Formula 1 in vivo on LPS-induced endotoxemia model employing DMRC200434. To assess the effect of DMRC200434 on endotoxemia, DMRC200434 was treated on LPS induced endotoxemia model.

CC(C)N1CCN(c2ccc(/C(=C(/CCCO)c3ccccc3)c3ccc(O)cc3)cc2)CC1 [DMRC200434, (E)-5-(4-hydroxyphenyl)-5-(4-(4-isopropylpiperazin-1-yl)phenyl)-4-phenylpent-4-en-1-ol]
expression of inflammatory surface marker CD40 [1]: downregulated | expression of inflammatory surface marker CD80 [1]: downregulated | expression of inflammatory surface marker CD86 [1]: downregulated | endotoxin mediated death (survival) [2]: significantly delayed
